In patent publication US8288371B2, “Ortho pyrrolidine, benzyl-substituted heterocycle CCR1 antagonists for autoimmune diseases and inflammation” (Pharmacopeia, LLC, priority 2007, dated 2012) one finds IC50 data, which are given here for 62 molecules.

Broadly, the IC50 is the point on the concentration scale where inhibition reaches its midpoint.

The test has as its target T1, human CCR1 (Homo sapiens, UniProt P32246).
T1 sequence (P32246 1-355): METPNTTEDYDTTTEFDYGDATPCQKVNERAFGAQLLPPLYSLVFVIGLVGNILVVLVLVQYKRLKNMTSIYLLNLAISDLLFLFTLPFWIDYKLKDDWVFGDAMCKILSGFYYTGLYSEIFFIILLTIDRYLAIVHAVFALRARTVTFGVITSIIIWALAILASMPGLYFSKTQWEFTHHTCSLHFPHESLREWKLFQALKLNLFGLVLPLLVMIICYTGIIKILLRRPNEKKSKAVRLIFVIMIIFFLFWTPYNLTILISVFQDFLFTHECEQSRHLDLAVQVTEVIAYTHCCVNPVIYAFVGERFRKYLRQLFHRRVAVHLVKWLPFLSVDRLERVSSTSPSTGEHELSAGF
Put plainly: CCR1 binding protocol (SPA, [125I]-MIP-1α displacement). The following applies: cell membrane expressing human CCR1, 0.1 nM [125I]-MIP-1α, 4 hours at ambient temperature; read-out: Relative potency (IC50). In outline: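 Human CCR1 membranes (0.5 μg/well) on SPA beads were incubated with compound and 0.1 nM [125I]-MIP-1α (final) for 4 h at ambient temperature. Buffer was Tris pH 7.4 with NaCl, KCl, MnCl and 0.1% BSA. IC50 came from ½-log compound dilutions (10 mM top DMSO stock) by displacement of bound radioligand.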
For the molecule `Cc1nnc([C@H]2CCCN2C(=O)Nc2ccc3ccccc3c2)n1Cc1ccc(Cl)cc1` [Compound 135], the half-inhibitory concentration (IC50) was less than 50 nM.

As for `Cc1nnc([C@H]2C[C@H](O)CN2C(=O)N[C@H]2CCOc3cc(C#N)ccc32)n1Cc1ccc(Cl)cc1` [Compound 523], the IC50 is less than 50 nM. As for `Cc1nnc([C@H]2CCCN2C(=O)Cc2cccc(C(F)(F)F)c2)n1Cc1ccc(Cl)cc1` [Compound 461], the IC50 was 50 to 500 nM. The same measure for `Cc1ccc(Cn2ccnc2[C@H]2CCCN2C(=O)Nc2ccc(C(F)(F)F)cc2)cc1` [Compound 46]: 500 to 5000 nM; for `N#C/N=C(\N[C@H]1CCCc2ccccc21)N1CCC[C@@H]1c1nnnn1Cc1ccc(Cl)cc1` [Compound 50]: 500 to 5000 nM; for `Cc1nnc([C@H]2CCCN2C(=O)N[C@@H](C)c2ccccc2)n1Cc1ccc(Cl)cc1` [Compound 227]: 50 to 500 nM. Regarding `Cc1nnc([C@H]2CCCN2C(=O)NC(C)c2cccnc2)n1Cc1ccc(Cl)cc1` (some centres unmarked) [Compound 139], the half-inhibitory concentration (IC50) was 50 to 500 nM. Under `O=C(N[C@H]1CCOc2cc(C(F)(F)F)ccc21)N1CCC[C@@H]1c1ncncc1Cc1ccc(Cl)cc1` [Compound 24] stands 50 to 500 nM; under `Cc1nnc([C@H]2CCCN2C(=O)NC2CCOCC2)n1Cc1ccc(Cl)cc1` [Compound 333], 500 to 5000 nM; under `Cc1nnc([C@H]2CCCN2C(=O)Nc2ccc(Cl)nc2Cl)n1Cc1ccc(Cl)cc1` [Compound 395], less than 50 nM. With `Cc1nnc([C@H]2CCCN2C(=O)N[C@H](C)c2ccc(C(F)(F)F)nc2)n1Cc1ccc(Cl)cc1` [Compound 460], the IC50 is less than 50 nM. The same measure for `Cc1ccc(C(=O)O)cc1NC(=O)N1CCC[C@@H]1c1nnc(C)n1Cc1ccc(Cl)cc1` [Compound 241]: 50 to 500 nM; for `Cc1nnc([C@H]2CCCN2C(=O)Nc2nnc(C(F)(F)F)s2)n1Cc1ccc(Cl)cc1` [Compound 464]: 500 to 5000 nM; for `Cc1noc(C)c1NC(=O)N1CCC[C@@H]1c1nnc(Cl)n1Cc1ccc(Cl)cc1` [Compound 259]: less than 50 nM.

On to `O=C(Nc1ccc(C(F)(F)F)cc1)N1CCC[C@@H]1c1ncncc1Cc1ccc(Cl)cc1` [Compound 23], for which the IC50 fell in the range of 50 to 500 nM. Take `Cc1nnc([C@H]2CCCN2C(=O)Nc2cnc(C(F)(F)F)nc2)n1Cc1ccc(Cl)cc1` [Compound 453]: the IC50 lay within 50 to 500 nM. As to `O=C(NC1(c2ccc(C(F)(F)F)cc2)CC1)N1C[C@H](O)C[C@@H]1c1nncn1Cc1ccc(Cl)cc1` [Compound 477], the IC50 lay within 50 to 500 nM. Consider `CC[C@H](NC(=O)N1CCC[C@@H]1c1ncnn1Cc1ccc(Cl)cc1)c1cc2ccccc2o1` [Compound 80], for which the IC50 is less than 50 nM. In the case of `CC[C@H](NC(=O)N1CCC[C@@H]1c1nnc(C)n1Cc1ccc(F)cc1)c1ccc(C(F)(F)F)cc1` [Compound 577], the IC50 was less than 50 nM. Consider `Cc1nnc([C@H]2C[C@@H](O)CN2C(=O)Nc2ccc(Cl)cc2F)n1Cc1ccc(Cl)cc1` [Compound 390], for which the IC50 is 500 to 5000 nM. As for `Cc1noc(C)c1NC(=O)N1CCC[C@@H]1c1nnc(C)n1Cc1ccc(Br)cc1` [Compound 554], the IC50 lay in the range of 50 to 500 nM. For `CN1C(=O)COc2ccc(NC(=O)N3CCC[C@@H]3c3ncnn3Cc3ccc(Cl)cc3)cc21` [Compound 99], the IC50 lay in the range of 50 to 500 nM. Under `Cc1nnc([C@H]2CCCN2C(=O)N[C@H]2CCOc3cc(Cl)ccc32)n1Cc1ccc(Cl)cc1` [Compound 113] stands less than 50 nM. The same measure for `Cc1onc(C(F)(F)F)c1NC(=O)N1CCC[C@@H]1c1nnc(C)n1Cc1ccc(Cl)cc1` [Compound 615]: less than 50 nM; for `N#Cc1ccc2c(c1)OCC[C@@H]2NC(=O)N1CCC[C@@H]1c1nnc(CO)n1Cc1ccc(Cl)cc1` [Compound 338]: less than 50 nM. As to `Cc1nnc([C@H]2CCCN2C(=O)N[C@@H]2c3ccccc3C[C@H]2O)n1Cc1ccc(Cl)cc1` [Compound 403], the IC50 is 50 to 500 nM.

As for `Cc1nnc([C@H]2CCCN2C(=O)Cc2cc(F)cc(C(F)(F)F)c2)n1Cc1ccc(Cl)cc1` [Compound 509], the concentration for half-maximal inhibition (IC50) lay in the range of 50 to 500 nM.

As for `Cc1nnc([C@H]2C[C@@H](O)CN2C(=O)N[C@@H](C)c2ccc(Cl)cc2)n1Cc1ccc(Cl)cc1` [Compound 438], the IC50 was less than 50 nM. With `CC(=O)O[C@@H]1C[C@H](c2nnc(C)n2Cc2ccc(Cl)cc2)N(C(=O)Nc2ccc(C(F)(F)F)nc2Cl)C1` [Compound 496], the IC50 was in the range of 50 to 500 nM. For `Cc1nnc([C@H]2CCCN2C(=O)N[C@@H]2CCc3cc(Cl)ccc32)n1Cc1ccc(Cl)cc1` [Compound 143], the IC50 was 50 to 500 nM.

With `Cc1noc(-c2ccccc2)c1NC(=O)N1CCC[C@@H]1c1nccn1Cc1ccc(Cl)cc1` [Compound 34], the IC50 was less than 50 nM. As to `Cc1nnc([C@H]2CC(F)CN2C(=O)NC(c2ccccc2)c2ccccc2)n1Cc1ccc(Cl)cc1` (some centres unmarked) [Compound 569], the IC50 lay in the range of 50 to 500 nM. As for `O=C(Nc1ccc(OC(F)(F)F)cc1)N1CCC[C@@H]1c1nccn1Cc1ccc(Cl)cc1` [Compound 39], the IC50 fell in the range of 50 to 500 nM. For the molecule `Cc1nnc([C@H]2CCCN2C(=O)N[C@H]2CCOc3cc(C(F)(F)F)ccc32)n1Cc1ccc(Br)cc1` [Compound 537], the IC50 is less than 50 nM. As for `Cc1cc(Cl)cc(C)c1N/C(=N/C#N)N1CCC[C@@H]1c1nnc(C)n1Cc1ccc(Cl)cc1` [Compound 198], the IC50 was less than 50 nM. In the case of `Cc1cccc(C)c1NC(=O)N1CCC[C@@H]1c1nnc(C)n1Cc1ccc(Cl)cc1` [Compound 158], the IC50 lay in the range of 50 to 500 nM. As to `Cc1nnc([C@H]2CCCN2C(=O)Nc2cc(C(=O)N(C)C)ccc2Cl)n1Cc1ccc(Cl)cc1` [Compound 347], the IC50 is less than 50 nM. On to `Cc1noc(C)c1N/C(=C\[N+](=O)[O-])N1CCC[C@@H]1c1nnc(C)n1Cc1ccc(Cl)cc1` [Compound 611], for which the IC50 is less than 50 nM. As to `Cc1nnc([C@H]2CCCN2C(=O)Nc2ccc3c(c2)N(C)C(=O)CO3)n1[C@H](C)c1ccc(Cl)cc1` [Compound 352], the IC50 lay within 50 to 500 nM.

Consider `Cc1nnc([C@H]2C[C@H](O)CN2C(=O)Nc2ccc(C(F)(F)F)nc2Cl)n1Cc1ccc(Cl)cc1` [Compound 491], for which the half-inhibitory concentration (IC50) is less than 50 nM. As to `CC[C@H](NC(=O)N1CCC[C@@H]1c1nnc(C)n1Cc1ccc(Br)cc1)c1ccc(C(F)(F)F)nc1` [Compound 561], the concentration for half-maximal inhibition (IC50) is less than 50 nM.

As to `Cc1nnc([C@H]2CCCN2C(=O)Nc2ccc(-c3ncccn3)cc2)n1Cc1ccc(Cl)cc1` [Compound 550], the IC50 lay in the range of 500 to 5000 nM. `Cc1nnc([C@H]2CCCN2C(=O)Nc2ccc(Cl)cc2)n1Cc1ccc(Cl)cc1` [Compound 160]: the IC50 lay within 50 to 500 nM. On to `CC1(C)CC[C@H](NC(=O)N2CCC[C@@H]2c2ncnn2Cc2ccc(Cl)cc2)c2ccccc21` [Compound 79], for which the IC50 lay in the range of 500 to 5000 nM. The same measure for `Cc1cc(C)c(S(=O)(=O)O)cc1NC(=O)N1CCC[C@@H]1c1nnc(C)n1Cc1ccc(Cl)cc1` [Compound 455]: 50 to 500 nM; for `Cc1nnc([C@H]2CCCN2C(=O)Cc2ccc(Cl)cc2)n1Cc1ccc(Cl)cc1` [Compound 174]: 50 to 500 nM. Consider `Cc1nnc([C@H]2CC(F)CN2C(=O)Nc2ccc(Cl)c(C(F)(F)F)c2)n1Cc1ccc(Cl)cc1` (some centres unmarked) [Compound 572], for which the concentration for half-maximal inhibition (IC50) fell in the range of 50 to 500 nM. Under `Cc1ccc(NC(=O)N2CCC[C@@H]2c2nnc(C)n2Cc2ccc(Cl)cc2)c(C)n1` [Compound 362] stands less than 50 nM; under `Cc1ncccc1NC(=O)N1CCC[C@@H]1c1nnc(C)n1Cc1ccc(Cl)cc1` [Compound 223], 50 to 500 nM; under `Cc1ccc(C(N)=O)cc1NC(=O)N1CCC[C@@H]1c1nnc(C)n1Cc1ccc(Cl)cc1` [Compound 229], 50 to 500 nM.

Consider `CCc1nnc([C@H]2CCCN2C(=O)Nc2c(C)noc2-c2ccccc2)n1Cc1ccc(Cl)cc1` [Compound 203], for which the IC50 was less than 50 nM. Under `Cc1nc(C(F)(F)F)ccc1NC(=O)N1C[C@H](O)C[C@@H]1c1nnc(C)n1Cc1ccc(Cl)cc1` [Compound 521] stands less than 50 nM. Under `CNC(=O)c1cc(C)ccc1NC(=O)N1CCC[C@@H]1c1nnc(C)n1Cc1ccc(Cl)cc1` [Compound 279] stands 50 to 500 nM. Under `O=C(NCc1ccc(Cl)cc1Cl)N1CCC[C@@H]1c1nnc(CO)n1Cc1ccc(Cl)cc1` [Compound 313] stands less than 50 nM. With `Cc1nnc([C@H]2CCCN2C(=O)NCc2ccc(F)cc2)n1Cc1ccc(Cl)cc1` [Compound 228], the IC50 fell in the range of 50 to 500 nM. Turning to `Cc1nnc([C@H]2C[C@H](O)CN2C(=O)NC2CCOc3cc(C#N)ccc32)n1Cc1ccc(Cl)cc1` (some centres unmarked) [Compound 440], the IC50 was less than 50 nM. On to `O=C(Nc1ccc2occc2c1)N1CCC[C@@H]1c1ncnn1Cc1ccc(Cl)cc1` [Compound 91], for which the IC50 was in the range of 50 to 500 nM. In the case of `Cc1nnc([C@H]2CCCN2C(=O)Nc2cc(C(=O)O)ccc2F)n1Cc1ccc(Cl)cc1` [Compound 282], the IC50 is 500 to 5000 nM. For the molecule `Cc1cc(Cl)cc(C)c1NC(=O)N1CCC[C@@H]1c1ncncc1Cc1ccc(Cl)cc1` [Compound 13], the IC50 was less than 50 nM. Regarding `O=C(N[C@H]1CCOc2cc(Cl)ccc21)N1CCC[C@@H]1c1ncnn1Cc1ccc(Cl)cc1` [Compound 65], the IC50 is 50 to 500 nM. Take `C[C@@H](NC(=O)N1CCC[C@@H]1c1nnc(CO)n1Cc1ccc(Cl)cc1)c1ccc(Cl)cc1` [Compound 401]: the IC50 is 50 to 500 nM.

`Cc1cc(C)[n+]([O-])c(C)c1NC(=O)N1CCC[C@@H]1c1nnc(C)n1Cc1ccc(Cl)cc1` [Compound 520]: the IC50 was less than 50 nM.
